From PMC9813676 (Current Research in Food Science, 2022)

Legend:
[1] = molecular target: T1, porcine pancreatic lipase (Sus scrofa, UniProt P00591); assay: Fluorescence titration of lipase; format: binding; conditions: for n (number of binding sites) / binding affinity with lipase (in words): fluorescence titration; for n (number of binding sites): excitation 280 nm, Tris-HCl pH 8.0
T1 sequence (P00591 1-450): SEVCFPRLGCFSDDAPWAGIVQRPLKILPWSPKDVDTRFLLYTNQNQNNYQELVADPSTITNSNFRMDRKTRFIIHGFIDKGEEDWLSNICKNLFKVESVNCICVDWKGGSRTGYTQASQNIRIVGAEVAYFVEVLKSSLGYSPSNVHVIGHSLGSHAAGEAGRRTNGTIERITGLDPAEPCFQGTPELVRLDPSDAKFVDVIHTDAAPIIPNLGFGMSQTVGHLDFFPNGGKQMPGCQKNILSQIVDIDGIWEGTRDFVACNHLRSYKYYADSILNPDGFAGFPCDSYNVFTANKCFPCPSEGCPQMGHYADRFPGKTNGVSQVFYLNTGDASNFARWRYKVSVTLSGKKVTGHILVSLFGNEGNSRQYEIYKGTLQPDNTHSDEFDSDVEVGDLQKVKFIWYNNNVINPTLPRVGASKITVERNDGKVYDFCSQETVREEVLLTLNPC

[2] = molecular target: T1, porcine pancreatic lipase; assay: Inhibitory activity on pancreatic lipase; conditions: IC50, pNPP substrate, Tris-HCl pH 8.0, 37 °C, means ± SD of triplicate
[3] = ref Zhi et al., 1999; cited from earlier work
[4] = rats, cited from earlier work
pancreatic lipase = conditions: ref Kumar and Alagawadi, 2013; cited from earlier work
[5] = oral administration, ref Zhou et al., 2021

Row | Kd [1] [µM] | n (number of binding sites) [1] | IC50 [2] [µM] | Structure (SMILES) | other results
1 | 105 | 0.911 | 7170 ± 418 | O=C1c2c(O)cc(O)cc2O[C@H](c2cc(O)c(O)c(O)c2)[C@H]1O [Dihydromyricetin] | –
2 | 16.3 | 0.964 | > 593 | O=c1cc(-c2ccccc2)oc2cc(O)cc(O)c12 [Chrysin] | –
3 | 5.38 | 1.115 | 367 ± 182 | C[C@@H]1O[C@@H](OC[C@H]2O[C@@H](Oc3c(-c4ccc(O)c(O)c4)oc4cc(O)cc(O)c4c3=O)[C@H](O)[C@@H](O)[C@@H]2O)[C@H](O)[C@H](O)[C@H]1O [Rutin] | –
4 | 0.156 | 1.435 | 99 ± 11 | O=c1cc(-c2ccc(O)c(O)c2)oc2cc(O)cc(O)c12 [Luteolin] | –
5 | 151 | 0.850 | 7316 ± 66 | C[C@@H]1O[C@@H](O[C@H]2C(=O)c3c(O)cc(O)cc3O[C@@H]2c2ccc(O)c(O)c2)[C@H](O)[C@H](O)[C@H]1O [Astilbin] | –
6 | 4.94 | 1.129 | > 2960 | O=c1c(-c2ccc(O)cc2)coc2cc(O)cc(O)c12 [Genistein] | –
7 | – | – | – | CCCCCCCCCCC[C@@H](C[C@@H]1OC(=O)[C@H]1CCCCCC)OC(=O)[C@H](CC(C)C)NC=O [Orlistat] | absorption in circulatory blood [3]: poorly absorbed
8 | 11.6 | 1.101 | 852 ± 667 | O=c1c(-c2ccc(O)cc2)coc2cc(O)ccc12 [Daidzein] | –
9 | 3160 | 0.734 | > 20700 | Oc1cc(O)c2c(c1)O[C@H](c1ccc(O)c(O)c1)[C@H](O)C2 [Epicatechin] | binding affinity with lipase (in words) [1]: very weak binding affinity
10 | 33.3 | 1.013 | 6032 ± 41 | O=C1C[C@@H](c2ccc(O)cc2)Oc2cc(O)cc(O)c21 [Naringenin] | –
11 | – | 1.419 | – | O=c1c(O)c(-c2ccc(O)c(O)c2)oc2cc(O)cc(O)c12 [Quercetin] | fat absorption in the gastrointestinal tract [4, 5]: significantly reduced fat absorption; fat excretion in feces [4, 5]: increased fat excretion in feces
12 | 10.8 | 1.086 | > 925 | O=c1c(-c2ccc(O)cc2)coc2cc(O[C@@H]3O[C@H](CO)[C@@H](O)[C@H](O)[C@H]3O)cc(O)c12 [Genistin] | –
13 | 4.06 | 1.163 | > 983 | O=c1c(O)c(-c2ccc(O)cc2)oc2cc(O)cc(O)c12 [Kaempferol] | –
14 | 10.9 | 1.086 | > 1160 | COc1ccc(-c2coc3cc(O[C@@H]4O[C@H](CO)[C@@H](O)[C@H](O)[C@H]4O)ccc3c2=O)cc1 [Ononin] | –
15 | 56.2 | 0.956 | 3870 ± 939 | O=C1c2c(O)cc(O)cc2OC(c2ccc(O)c(O)c2)C1O (stereo not shown) [Taxifolin] | –
16 | 3.86 | 1.156 | 256 ± 54 | O=c1cc(-c2ccc(O)cc2)oc2cc(O)cc(O)c12 [Apigenin] | –
17 | 83.2 | 0.926 | > 1860 | COc1ccc(-c2coc3cc(O)ccc3c2=O)cc1 [Formononetin] | –
18 | 13.7 | 1.097 | 574 ± 132 | O=c1c(O)c(-c2ccccc2)oc2cc(O)cc(O)c12 [Galangin] | anti-obesity effects ([4]; ref Kumar and Alagawadi, 2013): exhibited anti-obesity effects; inhibition on pancreatic lipase activity (pancreatic lipase): dose-dependent inhibition
19 | 5820 | 0.670 | > 49000 | Oc1cc(O)c2c(c1)O[C@H](c1cc(O)c(O)c(O)c1)[C@H](O)C2 [Epigallocatechin] | binding affinity with lipase (in words) [1]: very weak binding affinity
20 | 41.4 | 0.998 | 3030 ± 829 | COc1ccc([C@@H]2CC(=O)c3c(O)cc(O)cc3O2)cc1O [Hesperetin] | –
21 | 1.43 | 1.232 | 16800 ± 692 | O=c1c(-c2ccc(O)cc2)coc2c([C@@H]3O[C@H](CO)[C@@H](O)[C@H](O)[C@H]3O)c(O)ccc12 [Puerarin] | –
22 | 4.66 | 1.278 | – | O=c1cc(-c2ccc(O)c(O)c2)oc2cc(O)c([C@@H]3O[C@H](CO)[C@@H](O)[C@H](O)[C@H]3O)c(O)c12 [Isoorientin] | –
23 | 0.671 | 1.270 | 156 ± 22 | O=c1cc(-c2ccccc2)oc2cc(O)c(O)c(O)c12 [Baicalein] | –
24 | 141 | 0.877 | > 1150 | O=c1c(-c2ccc(O)cc2)coc2cc(O[C@@H]3O[C@H](CO)[C@@H](O)[C@H](O)[C@H]3O)ccc12 [Daidzin] | –
